Results reported in patent publication US9669003B2, “Use of flavone and flavanone derivatives in preparation of sedative and hypnotic drugs” (priority 2012, dated 2017).
Marks after values point to notes of the source that are not given here.

The molecules below were run on Kunming mice (assay: Influence on autonomic activity of normal mice (ZIL-2 mice autonomic activity meter, counts within 10 min)). Settings: intragastric, 25 mg/kg, 1 h after administration, x ± s, n = 10.
Type: in vivo
Description: (§1) 1.1 Animals for experiments: Kunming mice, weighting 18.9˜22.2 g for females, and 20.2˜23.0 g for males, licensed under SCXK-(Ji) 2007-0003, and provided by The experimental animal centre, Jilin University.
(§2) 1.2 Chemicals for experiments: The flavone derivatives provided in Examples 1-41 and the flavanone derivatives provided in Examples 42-71 are all formulated with 0.5% sodium carboxymethyl cellulose as solutions with required concentrations.
(§3) 1.3 Grouping of animals: 6420 animals are employed in the entire experiments and 2140 of the animals are randomly divided into 214 groups by gender, and the […] include: control group, low dosage group for each experimental drugs (25 mg/kg), medium dosage group for each experimental drugs (50 mg/kg), and high dosage group for each experimental drugs (100 mg/kg). Each group has 10 animals and either female or male constitutes half of the group. The groups are used in behavior observation and voluntary action observation. The other 4280 animals are randomly divided into 214 groups by gender respectively (the grouping way is the same with that described above). Each group has 20 animals and either female or male constitutes half of the group. In each group, 10 animals are used in hypnosis experimentations with pentobarbital sodium doses below the threshold, and the other 10 animals are used hypnosis experimentations with pentobarbital sodium doses at the threshold.
1.4 Experimental instrument and agents: ZIL-2 mice autonomic activity meter, production of Institute of Materia Medica of Chinese Academy of Medical Sciences; pentobarbital sodium, Lot: 100808, 25 g/bottle, Beijing Chemical Reagent Company equipment imported from Germany.
1.5.2 Influence on Autonomic Activity of Normal Mice
After observing the general behavior, in 1 h, 2 h and 24 h after drug administration, respectively, ZIL-2 mice autonomic activity meter is put respectively. Number of autonomic activities of each group of mice is measured within 10 min. Results among groups are compared.
(§4) Number of autonomic activities is detected by leneve Test for homogeneity of variance. If the homogeneity of variance is good (P>0.05), statistical analysis is performed with ANOVA. If ANOVA have statistical significance (P≦0.05), Dunnett's test for multiple comparisons analysis is performed. Number of animals of sleeping mice is applied of ANOVA. Incidence rate of animal asleep is applied of χ2 test. Sleep latency and sleep duration are recorded in min, averaged by group, represented by standard deviation, and undergo statistical analysis using ANOVA.

SMILES | Times of activities in 1 h after drug administration/10 min
COc1cc(OC)c2c(=O)cc(-c3ccccc3O)oc2c1OC [Example 3, 2′-hydroxyl-5,7,8-trimethoxyl-flavone] | 283.4 ± 45.8 /10 min
COc1ccc(C2CC(=O)c3cc(OC)c(OC)c(OC)c3O2)cc1OC (stereo not drawn) [Example 45, 6,7,8,3′,4′-penta methoxyl-flavanone] | 235.6 ± 44.5 /10 min

Same assay, conditions: intragastric, 25 mg/kg, 2 h after administration, x ± s, n = 10

SMILES | Times of activities in 2 h after drug administration/10 min
COc1cc(OC)c2c(=O)cc(-c3ccccc3O)oc2c1OC [Example 3, 2′-hydroxyl-5,7,8-trimethoxyl-flavone] | 264.7 ± 46.1 /10 min
COc1ccc(C2CC(=O)c3cc(OC)c(OC)c(OC)c3O2)cc1OC (stereo not drawn) [Example 45, 6,7,8,3′,4′-penta methoxyl-flavanone] | 223.2 ± 41.4 /10 min

Same assay, conditions: intragastric, 25 mg/kg, 24 h after administration, x ± s, n = 10

SMILES | Times of activities in 24 h after drug administration/10 min
COc1cc(OC)c2c(=O)cc(-c3ccccc3O)oc2c1OC [Example 3, 2′-hydroxyl-5,7,8-trimethoxyl-flavone] | 305.8 ± 80.9 /10 min
COc1ccc(C2CC(=O)c3cc(OC)c(OC)c(OC)c3O2)cc1OC (stereo not drawn) [Example 45, 6,7,8,3′,4′-penta methoxyl-flavanone] | 299.2 ± 61.3 /10 min

Same assay, conditions: intragastric, 50 mg/kg, 1 h after administration, x ± s, n = 10

SMILES | Times of activities in 1 h after drug administration/10 min
COc1cc(OC)c2c(=O)cc(-c3ccccc3O)oc2c1OC [Example 3, 2′-hydroxyl-5,7,8-trimethoxyl-flavone] | 236.2 ± 41.5 /10 min
COc1ccc(C2CC(=O)c3cc(OC)c(OC)c(OC)c3O2)cc1OC (stereo not drawn) [Example 45, 6,7,8,3′,4′-penta methoxyl-flavanone] | 136.6 ± 40.5 /10 min

Same assay, conditions: intragastric, 50 mg/kg, 2 h after administration, x ± s, n = 10

SMILES | Times of activities in 2 h after drug administration/10 min
COc1cc(OC)c2c(=O)cc(-c3ccccc3O)oc2c1OC [Example 3, 2′-hydroxyl-5,7,8-trimethoxyl-flavone] | 246.3 ± 49.1 /10 min
COc1ccc(C2CC(=O)c3cc(OC)c(OC)c(OC)c3O2)cc1OC (stereo not drawn) [Example 45, 6,7,8,3′,4′-penta methoxyl-flavanone] | 123.3 ± 47.6 /10 min

Same assay, conditions: intragastric, 50 mg/kg, 24 h after administration, x ± s, n = 10

SMILES | Times of activities in 24 h after drug administration/10 min
COc1cc(OC)c2c(=O)cc(-c3ccccc3O)oc2c1OC [Example 3, 2′-hydroxyl-5,7,8-trimethoxyl-flavone] | 298.8 ± 71.0 /10 min
COc1ccc(C2CC(=O)c3cc(OC)c(OC)c(OC)c3O2)cc1OC (stereo not drawn) [Example 45, 6,7,8,3′,4′-penta methoxyl-flavanone] | 291.5 ± 60.4 /10 min

Same assay, conditions: intragastric, 100 mg/kg, 1 h after administration, x ± s, n = 10

SMILES | Times of activities in 1 h after drug administration/10 min
COc1cc(OC)c2c(=O)cc(-c3ccccc3O)oc2c1OC [Example 3, 2′-hydroxyl-5,7,8-trimethoxyl-flavone] | 180.5 ± 35.3 /10 min
COc1ccc(C2CC(=O)c3cc(OC)c(OC)c(OC)c3O2)cc1OC (stereo not drawn) [Example 45, 6,7,8,3′,4′-penta methoxyl-flavanone] | 112.5 ± 35.4 /10 min

Same assay, conditions: intragastric, 100 mg/kg, 2 h after administration, x ± s, n = 10

SMILES | Times of activities in 2 h after drug administration/10 min
COc1cc(OC)c2c(=O)cc(-c3ccccc3O)oc2c1OC [Example 3, 2′-hydroxyl-5,7,8-trimethoxyl-flavone] | 174.7 ± 40.5 /10 min
COc1ccc(C2CC(=O)c3cc(OC)c(OC)c(OC)c3O2)cc1OC (stereo not drawn) [Example 45, 6,7,8,3′,4′-penta methoxyl-flavanone] | 105.6 ± 48.5 /10 min

Same assay, conditions: intragastric, 100 mg/kg, 24 h after administration, x ± s, n = 10

SMILES | Times of activities in 24 h after drug administration/10 min
COc1cc(OC)c2c(=O)cc(-c3ccccc3O)oc2c1OC [Example 3, 2′-hydroxyl-5,7,8-trimethoxyl-flavone] | 286.9 ± 90.4 /10 min
COc1ccc(C2CC(=O)c3cc(OC)c(OC)c(OC)c3O2)cc1OC (stereo not drawn) [Example 45, 6,7,8,3′,4′-penta methoxyl-flavanone] | 288.8 ± 69.5 /10 min

Each molecule was assayed on Kunming mice (assay: Influence on hypnosis effect with pentobarbital sodium doses at the threshold (50 mg/kg i.p.)). Settings: 25 mg/kg intragastric single dose, pentobarbital sodium 50 mg/kg i.p. 60 min later, x ± s, n = 10.
Type: in vivo
Description: as §1, §2, §3
1.5.4 Influence on Hypnosis Effect with Mice Pentobarbital Sodium Doses at the Threshold
(§5) The drug is intragastric administered in mice for single time, 2 animals of each group are given drug per round with the dosing interval of 40 min (±5 min). According to the administration round, in 60 min (±5 min) of each round after the drug administration, the animals were intraperitoneally injected 0.3% sodium pentobarbital 50 mg/kg, respectively. Time to fall asleep (sleep latency) and sleep duration of the animals were recorded within under sleep determination standard of loss of righting reflex more than 1 min.
as §4

SMILES | duration of sleep | time to sleep
COc1cc(OC)c2c(=O)cc(-c3ccccc3O)oc2c1OC [Example 3, 2′-hydroxyl-5,7,8-trimethoxyl-flavone] | 39.65 ± 18.32 min | 4.41 ± 1.43 min
COc1ccc(C2CC(=O)c3cc(OC)c(OC)c(OC)c3O2)cc1OC (stereo not drawn) [Example 45, 6,7,8,3′,4′-penta methoxyl-flavanone] | 59.67 ± 19.87 min | 4.19 ± 1.78 min

Same assay, conditions: 50 mg/kg intragastric single dose, pentobarbital sodium 50 mg/kg i.p. 60 min later, x ± s, n = 10

SMILES | duration of sleep | time to sleep
COc1cc(OC)c2c(=O)cc(-c3ccccc3O)oc2c1OC [Example 3, 2′-hydroxyl-5,7,8-trimethoxyl-flavone] | 56.76 ± 24.86 min | 3.90 ± 1.93 min
COc1ccc(C2CC(=O)c3cc(OC)c(OC)c(OC)c3O2)cc1OC (stereo not drawn) [Example 45, 6,7,8,3′,4′-penta methoxyl-flavanone] | 66.42 ± 28.90 min | 3.26 ± 1.24 min

Same assay, conditions: 100 mg/kg intragastric single dose, pentobarbital sodium 50 mg/kg i.p. 60 min later, x ± s, n = 10

SMILES | duration of sleep | time to sleep
COc1cc(OC)c2c(=O)cc(-c3ccccc3O)oc2c1OC [Example 3, 2′-hydroxyl-5,7,8-trimethoxyl-flavone] | 59.76 ± 25.75 min | 3.86 ± 1.22 min
COc1ccc(C2CC(=O)c3cc(OC)c(OC)c(OC)c3O2)cc1OC (stereo not drawn) [Example 45, 6,7,8,3′,4′-penta methoxyl-flavanone] | 90.03 ± 23.72 min | 2.17 ± 1.14 min

The molecules below were run on Kunming mice (assay: Influence on hypnosis effect with pentobarbital sodium doses below the threshold (25 mg/kg i.p.)). Settings: test drug 25 mg/kg intragastric single dose, pentobarbital sodium 25 mg/kg i.p. 60 min later, sleep observed in 30 min, n = 10.
Type: in vivo
Description: as §1, §2, §3
1.5.3 Influence on Hypnosis Effect with Mice Pentobarbital Sodium Doses Below the Threshold
as §5, with “25” for “50”, “Sleep condition” for “Time to fall asleep (sleep latency) and sleep duration”, “observed” for “recorded”, “30 min (under” for “under”, “min). After animals undergo loss of righting reflex, number of the animals is recorded, to calculate sleep percentage.” for “min.”
as §4

SMILES | Number of sleeping animals | rate of sleeping (%)
COc1cc(OC)c2c(=O)cc(-c3ccccc3O)oc2c1OC [Example 3, 2′-hydroxyl-5,7,8-trimethoxyl-flavone] | 3 | 30%
COc1ccc(C2CC(=O)c3cc(OC)c(OC)c(OC)c3O2)cc1OC (stereo not drawn) [Example 45, 6,7,8,3′,4′-penta methoxyl-flavanone] | 5 | 50** %

Same assay, conditions: test drug 50 mg/kg intragastric single dose, pentobarbital sodium 25 mg/kg i.p. 60 min later, sleep observed in 30 min, n = 10

SMILES | Number of sleeping animals | rate of sleeping (%)
COc1cc(OC)c2c(=O)cc(-c3ccccc3O)oc2c1OC [Example 3, 2′-hydroxyl-5,7,8-trimethoxyl-flavone] | 4 | 40* %
COc1ccc(C2CC(=O)c3cc(OC)c(OC)c(OC)c3O2)cc1OC (stereo not drawn) [Example 45, 6,7,8,3′,4′-penta methoxyl-flavanone] | 6 | 60** %

Same assay, conditions: test drug 100 mg/kg intragastric single dose, pentobarbital sodium 25 mg/kg i.p. 60 min later, sleep observed in 30 min, n = 10

SMILES | Number of sleeping animals | rate of sleeping (%)
COc1cc(OC)c2c(=O)cc(-c3ccccc3O)oc2c1OC [Example 3, 2′-hydroxyl-5,7,8-trimethoxyl-flavone] | 6 | 60** %
COc1ccc(C2CC(=O)c3cc(OC)c(OC)c(OC)c3O2)cc1OC (stereo not drawn) [Example 45, 6,7,8,3′,4′-penta methoxyl-flavanone] | 10 | 100*** %
